Like-named read-outs stand apart in the source and are kept apart here.
Legend:
[1] = molecular target: T1, HCV NS5B (Hepatitis C virus genotype 1b, UniProt Q9WMX2); assay: Modified HCV NS5B RdRp enzyme assay (preincubation protocol); assay type: biochemical
T1 construct: The protein was expressed with an 18 amino acid C-terminal truncation to enhance the solubility; made in house; host or cells: E. coli BL21(DE3)
How it was run: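 C-terminally truncated (Δ18) genotype 1b NS5B from E. coli, 14 nM, added to compound first, then polyA template (0.2 nM), 3H-UTP (0.29 μM) and oligo-dT12 primer precaptured on streptavidin SPA beads (20 nM). Run 4 h at 30° C, pH 7.5, 2% DMSO; IC50 fitted from seven concentrations.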

[2] = test system: HCV replicon; assay: HCV replicon assay (FRET or luciferase reporter); assay type: cell-based; settings: one of the methods described
How it was run: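 HCV replicon Huh-7 cells were exposed to titrated compound at 37 °C, with Alamar blue as a cytotoxicity read. Replication was measured by NS3 cleavage of an EDANS/DABCYL FRET peptide (20 μM, 340/490 nm kinetic read) or by Renilla luciferase, with background from high-dose protease inhibitor wells. EC50 was taken as 50% signal reduction; a 384-well format used 3.0×10^3 cells/well, 0.5% DMSO and 3 days.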

[3] = test system: 1a replicon; assay: HCV replicon assay with a 1a replicon; assay type: cell-based; settings: Hepatitis C virus
Text: To perform the HCV FRET screening assay, 96-well cell culture plates were used, The FRET peptide (Anaspec, Inc.) (Taliani et al., Anal. Biochem., 240:60-67 (1996)) contains a fluorescence donor, EDANS, near one end of the peptide and an acceptor, DABCYL, near the other end. The fluorescence of the peptide is quenched by […] resonance energy transfer (RET) between the donor and the acceptor, but as the NS3 protease cleaves the peptide the products are released from RET quenching and the fluorescence of the donor becomes apparent. The assay reagent was made as follows: 5× cell Luciferase cell culture lysis reagent from Promega (#E153A) diluted to 1× with dH2O, NaCl added to 150 mM final, the FRET peptide diluted to 20 μM final from a 2 mM stock.
To prepare plates, HCV replicon cells, with or without a Renilla luciferase reporter gene, were trypsinized and placed into each well of a 96-well plate with titrated test compounds added in columns 3 through 12; columns 1 and 2 contained a control compound (HCV protease inhibitor), and the bottom row contained cells without compound. The plates were then placed in a CO2 incubator at 37° C.
Subsequent to addition of the test compounds described above (FRET Assay Preparation), at various times the plate was removed and Alamar blue solution (Trek Diagnostics, #00-100) was added per well as a measure of cellular toxicity. After reading in a CYTOFLUOR® 4000 instrument (PE Biosystems), plates were rinsed with PBS and then used for FRET assay by the addition of 30 ul of the FRET peptide assay reagent described above (FRET Assay Preparation) per well. The plate was then placed into the CYTOFLUOR® 4000 instrument which had been set to 340 excite/490 emission, automatic mode for 20 cycles and the plate read in a kinetic mode. Typically, the signal to noise using an endpoint analysis after the reads was at least three-fold. Alternatively, after Alamar blue reading, plates were rinsed with PBS, 50 ul of DMEM (high glucose) without phenol red was added and plates were then used for luciferase assay using the Promega DUAL-GLO® Luciferase Assay System.
Compound analysis was determined by quantification of the relative HCV replicon inhibition and the relative cytotoxicity values. To calculate cytoxicity values, the average Alamar Blue fluorescence signals from the control wells were set as 100% non-toxic. The individual signals in each of the compound test wells were then divided by the average control signal and multiplied by 100% to determine […]. To calculate the HCV replicon inhibition values, an average background value was obtained from the two wells containing the highest amount of HCV protease inhibitor at the end of the assay period. These numbers were similar to those obtained from naïve Huh-7 cells. […]

[4] = Hepatitis C virus, class symbol
[5] = determined similarly but with a 1a replicon, class symbol, read-out: EC50

T1 sequence (Q9WMX2 2420-2992): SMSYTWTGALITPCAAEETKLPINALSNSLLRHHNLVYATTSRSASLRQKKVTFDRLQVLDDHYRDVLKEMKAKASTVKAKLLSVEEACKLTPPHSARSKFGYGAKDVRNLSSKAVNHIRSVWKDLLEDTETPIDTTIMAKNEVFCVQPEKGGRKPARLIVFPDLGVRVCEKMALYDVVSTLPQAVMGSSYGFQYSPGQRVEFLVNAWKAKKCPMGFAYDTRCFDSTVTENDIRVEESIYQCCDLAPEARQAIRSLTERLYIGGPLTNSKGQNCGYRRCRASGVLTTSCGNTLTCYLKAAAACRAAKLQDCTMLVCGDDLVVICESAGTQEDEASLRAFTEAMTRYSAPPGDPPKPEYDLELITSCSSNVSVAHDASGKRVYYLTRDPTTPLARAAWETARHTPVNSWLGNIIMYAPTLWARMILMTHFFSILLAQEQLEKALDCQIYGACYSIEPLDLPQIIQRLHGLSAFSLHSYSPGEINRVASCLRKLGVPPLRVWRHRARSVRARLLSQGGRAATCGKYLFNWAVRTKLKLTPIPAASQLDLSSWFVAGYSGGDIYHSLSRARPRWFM

Structure (SMILES)	IC50 ([1]; class symbol) [nM]	EC50 [2, 4] [nM]	further results
COc1ccc2c(c1)C=C(c1nn(C3CC3)cc1C(=O)N1CCOCC1)Cn1c-2c(C2CCCCC2)c2ccc(C(=O)NS(=O)(=O)C(C)C)cc21	1.7 to 500	1.7 to 500	–
CCOC(=O)c1cnn(-c2ccncc2C)c1C1=Cc2cc(OC)ccc2-c2c(C3CCCCC3)c3ccc(C(=O)NS(=O)(=O)C(C)C)cc3n2C1	1.7 to 500	1.7 to 500	–
COc1ccc2c(c1)C=C(c1c(C(=O)N3CCOCC3)cnn1-c1ccncc1C)Cn1c-2c(C2CCCCC2)c2ccc(C(=O)NS(=O)(=O)C(C)C)cc21	1.7 to 500	1.7 to 500	–
COCC1CN(C(=O)c2cnn(-c3ccncc3C)c2C2=Cc3cc(OC)ccc3-c3c(C4CCCCC4)c4ccc(C(=O)NS(=O)(=O)C(C)C)cc4n3C2)CCO1 (stereo not shown)	1.7 to 500	1.7 to 500	IC50 ([1]; exact value): 5.5 nM; EC50 ([2]; Hepatitis C virus, exact value): 170 nM
COc1ccc2c(c1)C=C(c1c(C(=O)N3C4CCCC3COC4)cnn1-c1ccncc1C)Cn1c-2c(C2CCCCC2)c2ccc(C(=O)NS(=O)(=O)C(C)C)cc21	1.7 to 500	1.7 to 500	IC50 ([1]; exact value): 4.3 nM; EC50 ([2]; Hepatitis C virus, exact value): 4 nM
COc1ccc2c(c1)C=C(c1c(C(=O)N3C[C@@H](C)O[C@@H](C)C3)cnn1-c1ccncc1C)Cn1c-2c(C2CCCCC2)c2ccc(C(=O)NS(=O)(=O)C(C)C)cc21	1.7 to 500	1.7 to 500	–
COc1ccc2c(c1)C=C(c1c(C(=O)N3C[C@@H](C)N(C)[C@@H](C)C3)cnn1-c1ccncc1C)Cn1c-2c(C2CCCCC2)c2ccc(C(=O)NS(=O)(=O)C(C)C)cc21	1.7 to 500	1.7 to 500	–
COc1ccc2c(c1)C=C(c1c(C(=O)N3C4COCC3COC4)cnn1-c1ccncc1C)Cn1c-2c(C2CCCCC2)c2ccc(C(=O)NS(=O)(=O)C(C)C)cc21	1.7 to 500	1.7 to 500	–
COc1ccc2c(c1)C=C(c1c(C(=O)N3C4CCC3CC(C)(O)C4)cnn1-c1ccncc1C)Cn1c-2c(C2CCCCC2)c2ccc(C(=O)NS(=O)(=O)C(C)C)cc21 (stereo not shown)	1.7 to 500	1.7 to 500	–
CCOC(=O)c1cnn(C2CC[N+](C)([O-])CC2)c1C1=Cc2cc(OC)ccc2-c2c(C3CCCCC3)c3ccc(C(=O)NS(=O)(=O)C(C)C)cc3n2C1 (stereo not shown)	1.7 to 500	1.7 to 500	IC50 ([1]; exact value): 5.1 nM; EC50 ([2]; Hepatitis C virus, exact value): 220 nM
COc1ccc2c(c1)C=C(c1c(C(=O)N3C[C@@H](C)O[C@@H](C)C3)c(C(C)C)nn1C1CC1)Cn1c-2c(C2CCCCC2)c2ccc(C(=O)NS(=O)(=O)C(C)C)cc21	–	–	EC50 [3, 5]: 1.7 to 500 nM
COc1ccc2c(c1)C=C(c1c(C(=O)N3C[C@@H](C)N(C)[C@@H](C)C3)c(C(C)C)nn1C1CC1)Cn1c-2c(C2CCCCC2)c2ccc(C(=O)NS(=O)(=O)C(C)C)cc21	–	–	EC50 [3, 5]: 1.7 to 500 nM
COc1ccc2c(c1)C=C(c1c(C(=O)N3C4CCC3CN(C)C4)c(C(C)C)nn1C1CC1)Cn1c-2c(C2CCCCC2)c2ccc(C(=O)NS(=O)(=O)C(C)C)cc21	–	–	EC50 [3]: 1.7 to 500 nM
COc1ccc2c(c1)C=C(c1c(C(=O)N3C4CCC3COC4)c(C(C)C)nn1C1CC1)Cn1c-2c(C2CCCCC2)c2ccc(C(=O)NS(=O)(=O)C(C)C)cc21	–	–	EC50 [3]: 1.7 to 500 nM
COc1ccc2c(c1)C=C(c1c(C(=O)N3C[C@@H](C)O[C@@H](C)C3)cnn1C1CCC1)Cn1c-2c(C2CCCCC2)c2ccc(C(=O)NS(=O)(=O)N(C)C)cc21 [drawing 259]	1.7 to 500	1.7 to 500	–
COc1ccc2c(c1)C=C(c1c(C(=O)N3C[C@@H](C)O[C@@H](C)C3)cnn1C1CCC1)Cn1c-2c(C2CCCCC2)c2ccc(C(=O)NS(=O)(=O)N(C)C)cc21 [drawing 260]	1.7 to 500	–	EC50 ([2]; class symbol): 1.7 to 500 nM

Reference: patent publication US8133884B2, “Compounds for the treatment of hepatitis C” (priority 2008, dated 2012)
